# Experimental data published in publication PMC7179226, “Sulfonamide Inhibition Studies of the β-Class Carbonic Anhydrase CAS3 from the Filamentous Ascomycete Sordaria macrospora” (Molecules, 2020).
# Target: T1, CAS3 (Sordaria macrospora, UniProt F7VU04)
# T1 construct: gene SMAC_03179; primers imply N-terminus (M)MPVTNEE and C-terminus KTVRVV-LE-His6
# Test: stopped-flow CO2 hydration inhibition assay
# Assay type: biochemical
# Settings: not given
row,Ki [nM],SMILES
1,191 ± 12,O=C1NS(=O)(=O)c2ccccc21 [SAC]
2,669 ± 29,Cc1ccc(-c2cc(C(F)(F)F)nn2-c2ccc(S(N)(=O)=O)cc2)cc1 [CLX]

row,SMILES,Ki [nM]
1,NS(=O)(=O)c1cc2c(cc1Cl)NCNS2(=O)=O [HCT],545 ± 41

# Same assay, conditions: read-out: KI* (nM) / CAS3 ^c / β
row,SMILES,Ki [nM]
1,"CCN[C@H]1CN(CCCOC)S(=O)(=O)c2sc(S(N)(=O)=O)cc21 [BRZ, brinzolamide]",61 ± 1.4
2,"Nc1nnc(S(N)(=O)=O)s1 [compound 13, deacetylated precursor of acetazolamide]",88 ± 2.9
3,"NS(=O)(=O)c1cc(Cl)c(Cl)c(S(N)(=O)=O)c1 [DCP, dichlorophnamide]",73 ± 3
4,CCN1CCCC1CNC(=O)c1cc(S(N)(=O)=O)ccc1OC (centres unmarked) [SLP],493 ± 27
5,"Cn1nc(S(N)(=O)=O)sc1=N [compound 14, deacetylated precursor of methazolamide]",94 ± 4.1
6,CC1(C)O[C@@H]2[C@@H](CO[C@@]3(COS(N)(=O)=O)OC(C)(C)O[C@@H]23)O1 [TPM],363 ± 23
7,"CC(=O)N=c1sc(S(N)(=O)=O)nn1C [MZA, methazolamide]",91 ± 6.2

# Next, values leading:
row,Ki [nM],SMILES
1,710 ± 40,NS(=O)(=O)Cc1noc2ccccc12 [ZNS]
2,4840 ± 257,"NS(=O)(=O)c1ccc(N2CCCCS2(=O)=O)cc1 [SLT, sulthiame]"
3,831 ± 38,Cc1onc(-c2ccccc2)c1-c1ccc(S(N)(=O)=O)cc1 [VLX]
4,54 ± 0.9,"NS(=O)(=O)c1nnc(NS(=O)(=O)c2ccccc2)s1 [BZA, benzolamide]"
5,82 ± 3.7,"NS(=O)(=O)c1ccc(CO)cc1 [compound 16, 4-hydroxymethyl-benzenesulfonamide]"
6,94 ± 4.6,NS(=O)(=O)c1ccc(S(=O)(=O)Nc2cccc3c(Cl)c[nH]c23)cc1 [IND]

# Target: T2, CAS3 (Sordaria macrospora, UniProt F7VU04)
# T2 construct: gene SMAC_03179; primers imply N-terminus (M)MPVTNEE and C-terminus KTVRVV-LE-His6
# T2 sequence (F7VU04 1-174): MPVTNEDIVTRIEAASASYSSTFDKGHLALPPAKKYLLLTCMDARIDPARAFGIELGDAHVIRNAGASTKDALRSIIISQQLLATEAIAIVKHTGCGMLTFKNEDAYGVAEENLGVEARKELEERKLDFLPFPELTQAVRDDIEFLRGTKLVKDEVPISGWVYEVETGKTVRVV
# Test: biochemical
# Settings: read-out: KI* (nM) / CAS3 ^c / β
# Description: An Applied Photophysics stopped-flow instrument was used for assaying the CA catalyzed CO2 hydration activity. […] The initial rates of the CA-catalyzed CO2 hydration were followed for a period of 10–100 s for each assay. […] For each measurement, six traces of the initial 5%–10% of the reaction were used for determining the initial velocity. Then, 10-fold decreasing dilution of inhibitor solutions, ranging from 1 nM and 100 µM were employed for determining the inhibition constants. Uncatalyzed rates were determined in the same manner and subtracted from total observed rates. Stock solutions of inhibitor (0.1 mM) were prepared in distilled deionized water, and dilutions up to 1 nM were done thereafter with the assay buffer. Inhibitor and enzyme solutions were preincubated together for 15 min at room temperature before to assay for allowing for the formation of E–I complexes. The inhibition constants were obtained by non-linear least-squares methods using the Cheng–Prusoff equation, and they represent the mean from at least three different determinations. The human isoforms hCA I, II were assayed in the same conditions as above except that the working pH was 7.4 HEPES buffer with phenol red as an indicator [21, 22].
row,SMILES,Ki [nM]
1,Nc1ccc(S(=O)(=O)Nc2nnc(S(N)(=O)=O)s2)cc1 [compound 20],85 ± 2.7
2,NS(=O)(=O)c1cccc(S(N)(=O)=O)c1 [compound 3],83 ± 6
3,Nc1ccc(S(N)(=O)=O)cc1F [compound 7],585 ± 23
4,Nc1cc(C(F)(F)F)c(S(N)(=O)=O)cc1S(N)(=O)=O [compound 11],235 ± 16
5,NS(=O)(=O)c1cc(Cl)cc(Cl)c1O [compound 10],350 ± 13
6,Nc1cc(Cl)c(S(N)(=O)=O)cc1S(N)(=O)=O [compound 12],90 ± 5.7
7,NCCc1ccc(S(N)(=O)=O)cc1 [compound 6],441 ± 14
8,Nc1ccc(S(N)(=O)=O)cc1Cl [compound 8],2080 ± 61
9,Nc1ccc(S(N)(=O)=O)cc1Br [compound 9],712 ± 28

# Next, values leading:
row,Ki [nM],SMILES
1,605 ± 23,NS(=O)(=O)c1ccc(O)cc1 [compound 15]
2,91 ± 4.4,Nc1nccc(Nc2ccc(S(N)(=O)=O)cc2)n1 [compound 19]
3,507 ± 26,NS(=O)(=O)c1ccc(CCO)cc1 [compound 17]
4,85 ± 2.6,Nc1ccc(S(=O)(=O)Nc2ccc(S(N)(=O)=O)cc2)cc1 [compound 22]
5,84 ± 1.5,Nc1ccc(S(=O)(=O)NCCc2ccc(S(N)(=O)=O)cc2)cc1 [compound 24]
6,89 ± 3.4,Nc1ccc(S(=O)(=O)NCc2ccc(S(N)(=O)=O)cc2)cc1 [compound 23]
7,226 ± 13,NS(=O)(=O)c1ccc(C(=O)O)cc1 [compound 18]
8,95 ± 3.9,NS(=O)(=O)c1ccc(CCNS(=O)(=O)c2ccc([N+](=O)[O-])cc2CO)cc1 [compound 21]
9,560 ± 21,Cc1ccc(S(N)(=O)=O)cc1 [compound 4]
10,726 ± 30,NCc1ccc(S(N)(=O)=O)cc1 [compound 5]
